Experimental data as given in paper PMC3724992, “Identification of new HLA-A*0201-restricted cytotoxic T lymphocyte epitopes from neuritin” (Journal of Neuro-Oncology, 2013).

Legend:
[1] = target: T1, HLA-A*0201 molecules on T2 cells (Homo sapiens, UniProt P04439, D140Y/D185E/D98H/E176V/E277Q/G131W/G231S/I119V/I121R/I166T/I218V/L300P/L318F/N151K/N90K/P208A/P217A/Q86G/Q94H/R138H/R169H/T345S); experiment: Peptide-binding assay: up-regulation of HLA-A*0201 on T2 cells; conditions: for FI (fluorescence index): 1 × 10^6 T2 cells, 50 μM peptide, serum-free RPMI 1640, β2-microglobulin 3 μg/ml, 16 h, 37 °C, flow cytometry with anti-HLA-A2 Ab (BB7.2) and FITC secondary, mean of triplicate; for affinity to HLA-A2.1 (in words): T2 cells, authors' grading of the Table 2 data
T1 construct: endogenous in cells; host or cells: T2 cells
Procedure: To determine whether the candidate epitopes can bind to HLA-A*0201 molecules, up-regulation of peptide-induced HLA-A*0201 molecules on T2 cells was examined. Briefly, according to previous reference, 1 × 10^6 T2 cells were incubated with 50 μM of the synthesized peptides in serum-free RPMI 1640 medium supplemented with β2-microglobulin (Sigma) at a concentration of 3 μg/ml for 16 h at 37 °C, 5 % CO2 [18]. Expression of HLA-A*0201 on T2 cells was then determined with the FACS Calibur flow cytometer (Becton–Dickinson, USA), by staining with primary anti-HLA-A2 Ab derived from BB7.2 and FITC-labeled goat-antimouse IgG (BD Biosciences Pharmingen, USA) secondary antibody. The data were analyzed using Cell Quest software (Becton–Dickinson, USA). The Fluorescence index (FI) was calculated as follows: FI = (mean FITC fluorescence with the given peptide − mean FITC fluorescence without peptide)/(mean FITC fluorescence without peptide). Samples were measured in triplicate and then mean FI was calculated. An octapeptide mHpa (519–526) ([…]) derived from mouse Hpa was served negative control.

[2] = test system: IFN-γ-producing T cells; experiment: IFN-γ ELISPOT assay of peptide-induced effectors; format: cell-based; conditions: human HLA-A2+ donor T cells restimulated every 7 days with DCs pulsed with 100 μg/ml peptide; assessed on day 23; triplicate; compared to negative peptide control, P < 0.05
Procedure: (§1) PBMCs were isolated from healthy HLA-A2+ donors by Ficoll–Hypaque density gradient centrifugation (TBC company, Tianjing, China) and then seeded into culture flasks in RPMI-1640 medium supplemented with penicillin (100 U/ml), streptomycin (100 μg/ml), and 10 % FBS. After monocytes adhered (incubation for 2 h), the nonadherent cells were collected and frozen in freeze medium (60 % RPMI-1640 and 30 % FBS, 10 % DMSO) for later use in CTL assays. The adherent cells were cultured for 5 days in RPMI-1640 containing 1,000 U/ml of granulocyte–macrophage colony-stimulating factor (R&D Systems, Inc., Minneapolis, MN) and interleukin-4 (IL-4; R&D Systems, Inc.) and were the cultured for an additional 2 days in the presence of 1,000 U/ml of tumor necrosis factor α (R&D Systems, Inc.) to induce final maturation. After 7 days of culture, the mature DCs were harvested and analyzed for DC typical phenotypes by FACS analysis.
(§2) Briefly, DCs were loaded with different peptides at a final concentration of 100 μg/ml for 4 h and were then irradiated with 20 Gy, which prevented all outgrowths in the control cultures. Autologous T cells were restimulated every 7 days with the previously mentioned peptide-pulsed DCs to generate peptide-specific CTLs. Recombinant interleukin 2 (IL-2) at a concentration of 20 U/ml was added to the culture medium on day 3 after every stimulation. Cytotoxic T lymphocyte activity was then assessed on day 23 by a 4 h ^51Cr release assay. Effectors generated from negative peptide-pulsed DCs were used as controls.
IFN-γ secretion of effectors was assayed by enzyme-linked immunospot (ELISPOT). Multiscreen 96-well assay plates (Dakewe, Shenzhen, China) were precoated overnight at 4 °C with anti-IFN-γ antibody according to the manufacturer’s instruction. After washing with PBST (PBS-0.05 % Tween 20), plates were blocked for 1 h at 37 °C with PBS/1 % BSA. […] After being air-dried, the number of spots in each well was counted using the Bioreader 4000 PRO-X (Bio-Sys; Germany).
Fig. 2 Specific IFN-γ by ELISPOT assay. […] The IFN-γ secretion was then assessed on day 23. […]

[3] = test system: target cells expressing neuritin and HLA-A2.1; experiment: 4-h 51Cr release cytotoxicity assay of CTLs induced in vitro; format: cell-based, human; conditions: PBMCs from four HLA-A2.1+ donors stimulated with peptide-pulsed DCs, E/T 25:1, 50:1, 100:1, triplicate
Procedure: as §1, §2
To evaluate the levels of CTL activity, a standard 4-h ^51Cr release assay was used. Briefly, target cells were incubated with ^51Cr (100 μCi per 1 × 10^6 cells) for 2 h in a 37 °C water bath. […] After a 4-h incubation, the supernatants were harvested, and the amount of released ^51Cr was measured with a gamma counter. The percent specific lysis was calculated according to the following formula: […]
Fig. 3 Specific lysis of CTLs against target cells. […] After a 4-h incubation, the supernatants were harvested, and the amount of released ^51Cr was measured with a gamma counter. […]

[4] = test system: neuritin and HLA-A2.1 positive cells; experiment: In vivo immunogenicity: CTLs from immunized mice, 51Cr release assay; conditions: HLA-A*0201/Kb mice, 100 μg peptide in IFA, boosted once a week for three times, splenocytes 7 days after immunization as effectors
Procedure: To evaluate the levels of CTL activity, a standard 4-h ^51Cr release assay was used. Briefly, target cells were incubated with ^51Cr (100 μCi per 1 × 10^6 cells) for 2 h in a 37 °C water bath. After incubation with ^51Cr, target cells were washed three times with PBS, resuspended in RPMI-1640 medium, and mixed with effector cells at a 25:1, 50:1 or 100:1 of effector to target (E/T) ratio. Assays were performed in triplicate for each sample at each ratio in a 96-well round-bottomed plate. After a 4-h incubation, the supernatants were harvested, and the amount of released ^51Cr was measured with a gamma counter. The percent specific lysis was calculated according to the following formula:
Specific lysis = (experimental release − spontaneous release)/(maximal release − spontaneous release) × 100 %
HLA-A*0201/Kb mice were immunized with 100 μg of various peptides prepared in incomplete Freund’s adjuvant (IFA) and boosted once a week for three times. As a control, mice were injected with an IFA emulsion without peptide. 7 days after immunization, splenocytes from injected animals were cultured and used as effector cells.
Fig. 5 In vivo induction of epitope-specific CTLs in vivo. HLA-A*0201/Kb mice were immunized with 100 μg of various peptides prepared in incomplete Freund’s adjuvant (IFA) and boosted once a week for three times. As a control, mice were injected with an IFA emulsion without peptide. 7 days after immunization, splenocytes from injected animals were cultured and used as effector cells. The cytotoxic activities of CTLs were determined against target cells at various E/T ratios using ^51Cr release assay. […] Compared with controls, P < 0.05

[5] = target: T2, HLA-A*0201/peptide complexes on T2 cells (Homo sapiens, UniProt P04439, D140Y/D185E/D98H/E176V/E277Q/G131W/G231S/I119V/I121R/I166T/I218V/L300P/L318F/N151K/N90K/P208A/P217A/Q86G/Q94H/R138H/R169H/T345S); experiment: Peptide/HLA-A*0201 complex stability on T2 cells; format: binding; conditions: authors' grading of the Table 2 data
T2 construct: Expression of HLA-A*0201 on T2 cells was then determined; endogenous in cells; host or cells: T2 cells
Procedure: Briefly, T2 cells (10^6/ml) were incubated overnight with the candidate peptides, respectively, at a concentration of 20 μg/ml in serum-free medium supplemented with β2-microglobulin at a concentration of 3 μg/ml at 37 °C.
Thereafter, they were washed four times to remove free peptides, incubated with Brefeldin A (10 µg/ml) for 1 h to block cell surface expression of newly synthesized HLA-A2.1 molecules, washed and incubated at 37 °C for 0, 2, 4, 6, or 8 h. Subsequently, cells were stained with anti-HLA-A2 antibody from BB7.2 cells to evaluate the HLA-A2.1 molecule expression. For each time point, peptide induced HLA-A*0201 expression was evaluated by the formula mentioned above. Dissociation complex50 (DC50) was defined as the time required for the loss of 50 % of the HLA-A*0201/peptide complexes stabilized at time = 0.

Sequence | FI (fluorescence index) [1] | affinity to HLA-A2.1 (in words) [1] | peptide-specific T cell response (frequency of IFN-γ-producing T cells) [2] | induction of neuritin-specific CTLs that lyse target cells [3] | lysis of target cells by CTLs primed in immunized mice [4] | stability to HLA-A2.1 (in words) [5]
KLNGRYISL [neuritin4–12] | 1.07 | moderate | strong peptide-specific T cell response | able to elicit neuritin-specific CTLs | could lyse neuritin and HLA-A2.1 positive cells with high efficiency | 
ILAVQIAYL [neuritin13–21] | 1.68 | high | strong peptide-specific T cell response | able to elicit neuritin-specific CTLs | could lyse neuritin and HLA-A2.1 positive cells with high efficiency | high
VLLVSLSAA [neuritin127–135] | 0.68 | low |  |  |  | low
LLPAFPVLL [neuritin121–129] | 1.24 | moderate | strong peptide-specific T cell response | able to elicit neuritin-specific CTLs | could lyse neuritin and HLA-A2.1 positive cells with high efficiency | 
FSYGFFVI [mHpa (519–526), reference compound] | 0.38 |  |  |  |  | 
